What was measured:
[1] = biological target: T1, estrogen receptor derived from bovine uterus (Bos taurus, UniProt P49884); experiment: In vitro estrogen receptor binding assay; conditions: read-out: Estrogen receptor binding affinity: Ki
T1 construct: estrogen receptor derived from bovine uterus was diluted with the assay buffer solution so that 10 to 20 μg total protein was present; from tissue; host or cells: bovine uterus
T1 sequence (P49884 1-596): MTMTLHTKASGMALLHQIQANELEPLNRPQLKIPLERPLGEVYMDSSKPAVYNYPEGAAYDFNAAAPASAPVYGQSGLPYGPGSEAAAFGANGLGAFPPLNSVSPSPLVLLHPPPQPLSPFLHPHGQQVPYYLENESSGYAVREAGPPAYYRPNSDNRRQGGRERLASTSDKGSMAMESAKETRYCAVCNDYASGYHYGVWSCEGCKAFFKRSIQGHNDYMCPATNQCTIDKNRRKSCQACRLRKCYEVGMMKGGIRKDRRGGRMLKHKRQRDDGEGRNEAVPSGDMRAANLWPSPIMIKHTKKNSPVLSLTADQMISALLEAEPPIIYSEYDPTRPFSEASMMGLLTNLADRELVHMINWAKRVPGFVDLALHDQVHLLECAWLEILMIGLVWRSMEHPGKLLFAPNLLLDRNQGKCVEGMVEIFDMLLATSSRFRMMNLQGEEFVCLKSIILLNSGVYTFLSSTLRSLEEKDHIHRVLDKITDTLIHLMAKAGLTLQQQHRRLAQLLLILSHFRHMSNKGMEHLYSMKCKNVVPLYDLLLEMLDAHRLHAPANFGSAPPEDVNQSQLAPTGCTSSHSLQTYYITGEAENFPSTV
Procedure: The binding affinity of the compound according to the present invention to estrogen receptor was measured using an in vitro estrogen receptor binding assay. The binding affinity measures the ability of the compound according to the present invention to remove [^3H]-estradiol from estrogen receptor derived from bovine uterus. The following materials were used in this assay: (1) the assay buffer solution was 20 mM Tris/HCl (pH 7.5) containing 1 mM dithiothreitol (DTT), 1 mM EDTA and 10% glycerol; (2) radioactive ligand was [^3H]-estradiol purchased from Amersham Life Science; (3) the cold ligand was diethylstilbestrol purchased from sigma (Sigma); and (4) the estrogen receptor was derived from bovine uterus. The compound to be tested was prepared as a 10% DMSO solution. [^3H]-estradiol was dissolved in the assay buffer solution so as to obtain a final concentration of 1 nM. […] Each plate contains total binding, non-specific binding and the binding which were not inhibited by various concentrations of the compound. The plate was incubated for 1 hour at room temperature. […] These mixtures were centrifuged, and the supernatant thereof was evaluated for its radioactivity using a liquid scintillation counter. Specific binding was calculated by subtracting non-specific binding dpm (counts remaining in the supernatant obtained by centrifugal separation of a reaction mixture containing estrogen receptor derived from bovine uterus, radioactive ligand and excess cold ligand) from the total binding dpm (counts remaining in the supernatant obtained by centrifugal separation of a reaction mixture containing estrogen receptor derived from bovine uterus and radioactive ligand only). The effectiveness of the compound was evaluated by Ki. […] C is the concentration of [^3H]-estradiol in the reaction mixture, and Kd is the [^3H]-estradiol dissociation constant. The Kd was determined by Scatchard analysis. That is to say, various concentrations of [^3H]-estradiol were used to measure the concentration of specifically bound [^3H]-estradiol, which served as the horizontal axis, the value which was obtained by dividing the concentration of specifically bound [^3H]-estradiol by the concentration [^3H]-estradiol not bound to the receptor served as the vertical axis to produce a plot, and the negative value of the inverse of the slope of the resulting straight line was used as Kd.

[2] = system: MCF-7 breast cancer cells; experiment: MCF-7 growth analysis (estrogen agonist and antagonist activity, MTT assay); assay type: cell-based; conditions: Homo sapiens; for activity at 0.1 µM: MCF7, MCF-7, 72 hours, growth rate of diluent control = 100, of 17β-estradiol (1 nM) = 200, read-out: Agonist activity: growth rate (100 nM test compound); for IC50: MCF7, MCF-7 growth with 17β-estradiol (10 pM) present simultaneously, 72 hours
Procedure: Test Example 2 determines the estrogen agonist and antagonist activities of the compound according to the present invention in reproduction system cells. […] The present test was carried out according to the following procedures. MCF-7 breast cancer cells were cultured in the preservation medium until the compound evaluation. The preservation medium is the MEM (minimum essential medium, phenol red-free, Gibco, ##51200-038) supplemented with 10% (volume/volume) fetal bovine serum (FBS), 2 mM L-glutamine, 1 mM sodium pyruvate, non-essential amino acids (0.1 mM, Gibco, #15240-062), and antibiotic-antimycotic solution ( 1/50 of culture medium volume, Gibco). Five days prior to analysis, the preservation medium was exchanged with analytical medium to which 10% charcoal-stripped fetal bovine serum (charcoal-FBS) was added instead of 10% FBS, so as to deprive the MCF-7 cells of endogenous steroids. Twenty-four hours after exchange to the analytical medium, the MCF-7 cells were removed from the preservation flask using cell isolation medium (trypsin-EDTA solution, Gibco). The cells were washed with analytical medium once, and cell suspension at 50,000 cell/ml was prepared using the analytical medium. The prepared cell suspension was added to a 96 well flat-bottomed microculture at […] (5,000 cells) per well, the cells were cultured in a 5% CO2 incubator for 24 hours at 37° C., to equilibrate the cells after cell transfer. […] The cells were further cultured in the 5% CO2 incubator for 72 hours at 37° C. After culturing, the cell growth was examined by the MTT assay. MTT assay was carried out as the following protocols. MTT solution at 8 mg/ml (MTT dissolved in phosphate saline water buffer) was added to the microculture at 10 μl/well, and the cells were cultured in the 5% CO2 incubator for 30 minutes at 37° C. Thereafter, resulting from the reduction of MTT by the cells, formazan crystals were dissolved by adding a dissolution buffer (400 g/l of an aqueous solution of SDS (50%) and dimethylformamide (50%)) to the microculture at 100 μl/well, and incubated the microculture for more than 4 hours in the dark. For each well of the microculture, the optical density at 590 nm due to the dissolved formazan crystals was measured.

[3] = system: ovariectomized rats; experiment: Bone resorption in ovariectomized rats: deoxypyridinoline in urine; assay type: in vivo, rat; conditions: OVX rats, urine
From the text: (§1) Ten weeks old Female Fischer rats (F344/N, Japan SLC, Shizuoka, Japan) were used. Rats were grouped to eliminate the effect of body weight between each group and housed with free access to food and water. Animals were anesthetized with Nembutal (Abbott Laboratories, Chicago, Ill.) and the ovaries were removed. In sham-operated group, ovaries were only touched with tweezers. Administration of compounds was started one day after the operation.
(§2) Estradiol (Sigma-Aldrich, St. Louis, Mo.) was dissolved in DMSO to 150 mg/mL then diluted with sesame oil to 0.15 mg/mL. The compounds in Examples 736 and 814, and Raloxifene were suspended in sesame oil to 5, 5 and 1.5 mg/mL, respectively. Samples were divided into aliquots for daily administration and preserved at −18° C. until use.
(§3) The samples were orally administered at 2 mL/kg. Administration was carried out once a day from Monday to Friday for 8 weeks.
Urine was gathered overnight (17 hours) using the metabolic cage under fasting. The amount of urinary deoxypyridinoline was measured with ELISA kit, Osteorincs-DPD (Sumitomo Seiyaku Biomedical Co., Ltd., Osaka, Japan) and evaluated as total amount produced in 17 hours or as the amount per 1 mg of creatinine.

[4] = system: ovariectomized rats; experiment: Ovariectomized rats: bone density of femur and fifth lumbar vertebrae; assay type: in vivo, rat; conditions: OVX rats, 8 weeks
From the text: as §1, §2, §3
After animals were sacrificed by decapitation, left femur and the fifth lumbar vertebrae were removed. The bone density was measured by using QDR-1000/W (Ho logic Inc., Bedford, Mass.).

[5] = system: ovariectomized rats; experiment: Ovariectomized rats: uterus wet weight; assay type: in vivo, rat
From the text: as §1, §2, §3
After animals were sacrificed by decapitation, uterus was removed and adipose tissue and vagina was separated from uterus prior to uterus weight measurement.

[6] = 3 mg/kg orally once a day Monday to Friday
[7] = 0.3 mg/kg orally once a day Monday to Friday

Row | SMILES | Ki [1] | IC50 [2] | activity at 0.1 µM [2] | also measured
1 | CCOCCN(C)CCOc1ccc(CN(CC)c2cc(OC)ccc2[C@@H]2CCc3cc(O)ccc3C2)cc1 [Example 618, (R)-6-{2-{{4-{2-[(2-Ethoxyethyl)methylamino]ethoxy}benzyl}ethylamino}-4-methoxyphenyl}-5,6,7,8-tetrahydronaphthalen-2-ol] | 2.9 nM | 2.9 nM | 96% | –
2 | O=C(c1ccc(OCCN2CCCCC2)cc1)c1c(-c2ccc(O)cc2)sc2cc(O)ccc12 [Raloxifene, 6-hydroxy-2-(4-hydroxyphenyl)-3-[4-(2-piperidinoethoxy)benzoyl]benz[b]thiophene, reference compound] | – | – | – | Deoxypyridinoline, 5 weeks [3, 6]: 8.83 ± 0.41 nM/mg/dl; Deoxypyridinoline, 8 weeks [3, 6]: 10.87 ± 1.16 nM/mg/dl; Bone Mineral Density, Distal femur ([4]; 3 mg/kg orally): 0.254 ± 0.002 g/cm^2; Bone Mineral Density, Lumber 5 ([4]; 3 mg/kg orally): 0.160 ± 0.003 g/cm^2; Bone Mineral Density, Whole femur ([4]; 3 mg/kg orally): 0.239 ± 0.002 g/cm^2; Effect on uterus wet weight (in words) ([5]; rat, in vivo): slightly increased uterus wet weight to the same level
3 | CC/C(=C(\c1ccccc1)c1ccc(OCCN(C)C)cc1)c1ccccc1 [Comparative Example, Tamoxifen, reference compound] | – | – | 133% | –
4 | C[C@]12CC[C@@H]3c4ccc(O)cc4CC[C@H]3[C@@H]1CC[C@@H]2O [Estradiol, reference compound] | – | – | – | Deoxypyridinoline, 5 weeks [3, 7]: 12.06 ± 1.60 nM/mg/dl; Deoxypyridinoline, 8 weeks [3, 7]: 11.61 ± 2.10 nM/mg/dl; Bone Mineral Density, Distal femur ([4]; 0.3 mg/kg orally): 0.250 ± 0.001 g/cm^2; Bone Mineral Density, Lumber 5 ([4]; 0.3 mg/kg orally): 0.150 ± 0.005 g/cm^2; Bone Mineral Density, Whole femur ([4]; 0.3 mg/kg orally): 0.237 ± 0.001 g/cm^2; Uterus (wet weight) ([5]; OVX rats, 0.3 mg/kg orally, 8 weeks): 0.213 ± 0.013 g
5 | CCN(Cc1ccc(CCN(C)C)cc1)c1cc(OC)c(OC)cc1[C@@H]1CCc2cc(O)ccc2C1 [Example 741, (R)-6-{2-{[4-(2-Dimethylaminoethyl)benzyl]ethylamino}-4,5-dimethoxyphenyl}-5,6,7,8-tetrahydronaphthalen-2-ol] | 0.2 nM | 2.06 nM | 98% | –
6 | CCN(Cc1ccc(OCCN2CCCCCC2)cc1)c1cc(O)ccc1C1=Cc2ccc(O)cc2CC1(C)C [Example 311, 6-{2-{[4-(2-Azepan-1-ylethoxy)benzyl]ethylamino}-4-hydroxyphenyl}-7,7-dimethyl-7,8-dihydronaphthalen-2-ol] | 5.1 nM | – | – | –
7 | CC(C)(Cc1ccc(O)cc1Oc1ccc(OCCN2CCCCC2)cc1)c1ccc(O)cc1 [Example 776, 4-[2-(4-Hydroxyphenyl)-2-methylpropyl]-3-[4-(2-piperidin-1-ylethoxy)phenoxy]phenol] | 6.3 nM | – | – | –

Continued, in another order:

Row | Ki [1] | IC50 [2] | SMILES | activity at 0.1 µM [2] | also measured
8 | 1 nM | 7.95 nM | CCN(Cc1ccc(OCCN2CCCCCC2)cc1)c1cc(O)ccc1[C@@H]1CCc2cc(O)ccc2C1 [190 (R), (R)-6-{2-{[4-(2-azepan-1-ylethoxy)benzyl]ethylamino}-4-hydroxyphenyl}-5,6,7,8-tetrahydronaphthalen-2-ol] | 124% | –
9 | 1.4 nM | 1.4 nM | CCN(Cc1ccc(CCN2CCCCCC2)cn1)c1cc(OC)c(OC)cc1C1CCc2cc(O)ccc2C1 (stereo not shown) [Example 255, 6-{2-{[5-(2-Azepan-1-ylethyl)pyridin-2-ylmethyl]ethylamino}-4,5-dimethoxyphenyl}-5,6,7,8-tetrahydronaphthalen-2-ol] | 106% | –
10 | 2.8 nM | 4.12 nM | CCN(Cc1ccc(CCN2CCCCCC2)s1)c1cc(OC)c(OC)cc1[C@@H]1CCc2cc(O)ccc2C1 [Example 259, (R)-6-{2-{[5-(2-Azepan-1-ylethyl)thiophen-2-ylmethyl]ethylamino}-4,5-dimethoxyphenyl}-5,6,7,8-tetrahydronaphthalen-2-ol] | 103% | –
11 | 2.3 nM | 2.62 nM | CCN(Cc1ccc(OCCN2CCCCCC2)nc1)c1cc(OC)ccc1[C@@H]1CCc2cc(O)ccc2C1 [Example 228, (R)-6-{2-{[6-(2-Azepan-1-ylethoxy)pyridin-3-ylmethyl]ethylamino}-4-methoxyphenyl}-5,6,7,8-tetrahydronaphthalen-2-ol] | 101% | –
12 | 17 nM | – | CCN(Cc1ccc(OCCN2CCCCC2)c(F)c1)c1ccc(F)cc1C1CCc2cc(O)ccc2C1 (stereo not shown) [Example 295, 6-{2-{Ethyl[3-fluoro-4-(2-piperidin-1-ylethoxy)benzyl]amino}-5-fluorophenyl}-5,6,7,8-tetrahydronaphthalen-2-ol] | – | –

— US8399520B2, “Selective estrogen receptor modulator” (Eisai R&D Management Co., Ltd., priority 2002, dated 2013)
